Reference: patent US20230041211A1, “DECREASING TOXICITY OF TERPENES AND INCREASING THE PRODUCTION POTENTIAL IN MICRO-ORGANISMS” (BASF SE, priority 2019, published 2023)
Converted amounts (≈) assume the structure as drawn. Like-named read-outs stand apart in the source and are kept apart here.

How the values were obtained:
[1] = cited from earlier work
E. coli MG1655 wild-type [2] = experiment: Toxicity assay: growth rate of wild-type E. coli in M9 medium with the chemical in sealed baffled flasks; format: cell-based, Escherichia coli
Description: The tolerance against Isoprenol was confirmed with the established toxicity assay of growth in M9 medium with Isoprenol in baffled sealed 250 mL flasks. To investigate the mode of action of the tolerance trait, chemicals with similar properties were tested.
(§1) On the next day 25 mL of medium in 250 mL baffled flasks with Teflon® liner screw cabs were inoculated to an OD of 0.2 and incubated at 200 rpm. The terpenoid stress was added to the specified concentration. Before the cell-culture reached stationary phase, part of the culture was transferred to fresh medium in a fresh flask with the terpenoid. The mean culture growth rate was determined by comparing the initial OD and the culture OD before passaging.
(§2) Growth rates were determined by transforming the OD-values of each experiment with the natural logarithm. In the linear regime of growth a line was fit to the data and the slope was determined, which is equal to the growth rate. Growth rates were determined for each flask individually and the growth rate of each condition is given as the mean and standard deviation of three biological replicates.
A linear interpolation of the two data-points adjacent to the half-maximal growth rate (MIC50) was used to estimate the compound concentration of half-maximal growth rate. If the corresponding standard-deviations of the growth rates were available the standard error of the MIC50 was computed by error propagation.

[3] = cited from earlier work; for loqP: Table 3B
[4] = tested on: adapted E. coli strains (Isolate A to C, Mut T6 A); format: cell-based, Escherichia coli; settings: Isobutanol 65 mM, Prenol 40 mM, Butanol 7.5 g/L, Vanillin 1 g/L; Geraniol concentration not given
Description: To investigate the mode of action of the tolerance trait, chemicals with similar properties were tested.
To assess the limitations of the tolerance mechanism, tolerance against three additional chemicals was tested.
as §1, §2

[5] = tested on: engineered E. coli strains (ΔyghB, ΔmarC, Δrob, rob H48fs); format: cell-based, Escherichia coli
Excerpt: We began the investigation of the mutations discovered in the final phenotype by testing the knock-out strains of the most promising gene-targets from the readily available Keio collection. The Keio collection is implemented in the BW25113 background which we subsequently used as reference for tolerance testing when using strains derived from the Keio collection. Compared to MG1655 the BW25113 strain is auxotroph for arabinose and rhamnose. Since glucose is the sole carbon source in our growth-assays this should not impact the physiology of tolerance.
Knock-out strains were constructed by amplification of resistance cassette with 25 bp overlap from corresponding Keio strains (Primers 3+4, 5+6 and 7+8). The PCR products carrying a homologous 25 bp sequence and a kanamycin resistance were used to transform E. coli MG1655 using standard procedures (Baba et al., 2006). For over-expression plasmids target genes were amplified with a 25 bp homology to the pAH030 overexpression plasmid. The Plasmid was linearized using the Spel restriction site and the PCR-product containing the gene of interested was inserted using Gibson assembly (Gibson et al., 2009).
Knock out strains were prepared using DNA-fragments isolated from the corresponding Keio collection strains. Recombination was carried out using a standard RED/ET kit (Genebridges Red/ET Kit, 2019).
as §2

E. coli MG1655 wild-type [6] = settings: cited from earlier work
[7] = tested on: Escherichia coli, Saccharomyces cerevisae, Pseudomonas putida and Rhodobacter sphaeroides; experiment: Toxicity of terpenes on unmodified organisms; settings: all four organisms
[8] = tested on: Escherichia coli, Saccharomyces cerevisae, Pseudomonas putida and Rhodobacter sphaeroides

C=CC(C)(O)CCC=C(C)C (centres unmarked) [Linalool]
Solubility ([1]; solubility in water, Table 3B): 1500 µg/mL (≈ 9.72 mM)

CC(C)CO [Isobutanol]
EC50 (E. coli MG1655 wild-type [2]; Escherichia coli, MG1655, wild-type strain, read-out: concentration where growth is 50% inhibited (EC50), half maximal inhibitory concentration): 65 mM | loqP [3]: 0.8 | tolerance of adapted strains compared to wild-type [4]: All strains exhibit an increased tolerance

C=C(C)[C@H]1CC=C(C)CC1 [Limonene]
loqP [3]: 4.571

Butanol
Wild-type growth rate (E. coli MG1655 wild-type [2]; 5 g/L Butanol (FIG. 9B)): 0.25 h⁻¹ | experimental EC50 / half-maximal growth repression (E. coli MG1655 wild-type [2]; wild-type E. coli, own experimental set-up): ~5000 µg/mL | increased growth rate ([5]; double knock out rob and marC with rob H48fs expression, 5 g/L Butanol): 41% | increase of tolerance (growth rate vs wild-type) ([5]; ΔmarC, 5 g/L Butanol): 32% | increase of tolerance (growth rate vs wild-type) ([5]; Δrob with leaky rob H48frameshift expression, 5 g/L Butanol): 34% | increase of tolerance (growth rate vs wild-type) ([5]; Δrob, 5 g/L Butanol): about 25% | increase of relative fitness ([5]; ΔyghB complemented with yghB plasmid, 0 μM IPTG, 5 g/L Butanol): about 11% | effect of yghB knock-out on tolerance ([5]; ΔyghB, 5 g/L Butanol): decreases tolerance | literature value for half-maximal concentration (E. coli MG1655 wild-type [6]): 7.5 g/L | tolerance of adapted strains compared to wild-type [4]: increased tolerance

COc1cc(C=O)ccc1O [Vanillin]
Wild-type growth rate (E. coli MG1655 wild-type [2]; 1.5 g/L Vanillin (FIG. 10B)): 0.23 h⁻¹ | EC50 (E. coli MG1655 wild-type [2]; Escherichia coli, MG1655, wild-type E. coli, own experimental set-up, read-out: experimental EC50 / half-maximal growth repression): 1000 to 1500 µg/mL | growth rate reduced to fraction of wild-type growth rate (no complete growth inhibition) (E. coli MG1655 wild-type [2]; wild-type E. coli MG1655, concentration regime tested (FIG. 10A)): ⅓ | Solubility ([1]; solubility in water, Table 3B): 10000 µg/mL (≈ 65.7 mM) | effect of marC knock-out under Vanillin stress ([5]; ΔmarC, 1.5 g/L Vanillin): no significant positive effect | increase of tolerance compared to wild-type ([5]; Δrob complemented with rob H48fs, 1.5 g/L Vanillin): 36% | increased growth rate ([5]; Δrob rob H48fs plus marC knock-out, 1.5 g/L Vanillin): 28% | increase of growth rate ([5]; Δrob, 1.5 g/L Vanillin): 8% | additional faster growth ([5]; ΔyghB complemented with yghB expression, versus ΔyghB, 1.5 g/L Vanillin): 3% | increase of growth rate ([5]; ΔyghB, 1.5 g/L Vanillin): 18% | tolerance of adapted strains compared to wild-type [4]: significantly increased growth rate

CC(=O)CCc1ccc(O)cc1 [4-(4-Hydroxyphenyl)-2-butanone]
loqP [3]: 1.5

CCCC(=O)OCC [Ethyl butanoate]
loqP [3]: 1.77

CC(C)=CCO [Prenol]
EC50 (E. coli MG1655 wild-type [2]; wild-type strain, read-out: concentration where growth is 50% inhibited (EC50), half maximal inhibitory concentration): 40 mM | loqP [3]: 0.91 | tolerance of adapted strains compared to wild-type [4]: only strain isolate A exhibited an increased tolerance

C=C(C)CCO [Isoprenol, 3-methyl-3-buten-1-ol]
growth of wild-type E. coli cells (E. coli MG1655 wild-type [2]; 60 to 80 mM Isoprenol concentration regime): not able to grow | toxicity on unmodified organisms [7]: toxic effects | Solubility ([1]; Table A): 90000 µg/mL (≈ 1040 mM) | Solubility ([1]; solubility in water, Table 3B): 90000 µg/mL (≈ 1040 mM) | loqP [3]: 0.89 | logP ([3]; Table A): 0.89 | decrease of fitness ([5]; ΔyghB strain of the Keio collection (BW25113), Isoprenol stress): about 30%

C=C(C)C1CC=C(C)C(=O)C1 (single isomer, unassigned; (-)) [(-)-Carvone]
loqP [3]: 2.71

CCOC(=O)CC [Ethyl Propionate]
loqP [3]: 1.21

CC(C)=CCC/C(C)=C/CO [Geraniol]
toxicity on unmodified organisms [7]: toxic effects | Solubility ([1]; solubility in water, Table 3B): 680 µg/mL (≈ 4.41 mM) | tolerance of adapted strains compared to wild-type [4]: highly elevated susceptibility

CC1CCC(C(C)C)C(O)C1 (centres unmarked) [Menthol]
toxicity on unmodified organisms [8]: toxic effects | loqP [3]: 3.2

COc1cc(C(=O)O)ccc1O [Vanillic Acid]
loqP [3]: 1.43

CC(C)=CCCC(C)=CC=O [Citral]
toxicity on unmodified organisms [7]: toxic effects | loqP [3]: 2.9

CC(C)=CCCC(C)=CCCC(C)=CCO [Farnesol]
Solubility ([1]; solubility in water, Table 3B): 50 µg/mL (≈ 0.225 mM) | loqP [3]: 4.16
